Values quoted from earlier work as cited in patent US12029740B2 (NANOCOPOEIA, LLC, priority 2020, dated 2024).
Structures can show the parent of a compound that is named as a salt.

What was measured:
[1] = low/moderate aqueous solubility and low permeability

SMILES	solubility with increasing pH	Biopharmaceutical Classification System (BCS) class [1]
Cc1cn(-c2cc(NC(=O)c3ccc(C)c(Nc4nccc(-c5cccnc5)n4)c3)cc(C(F)(F)F)c2)cn1 [nilotinib, 4-methyl-N-[3-(4-methyl-1H-imidazol-1-yl)-5-(trifluoromethyl)phenyl]-3-[[4-(3-pyridinyl)-2-pyrimidinyl]amino]-benzamide]	significantly decreases	
Cc1cn(-c2cc(NC(=O)c3ccc(C)c(Nc4nccc(-c5cccnc5)n4)c3)cc(C(F)(F)F)c2)cn1 [Nilotinib monohydrochloride monohydrate]		Class IV
